Target: T1, trypsin (Bos taurus, UniProt P00760)
T1 construct: gene PRSS1
T1 sequence (P00760 24-246): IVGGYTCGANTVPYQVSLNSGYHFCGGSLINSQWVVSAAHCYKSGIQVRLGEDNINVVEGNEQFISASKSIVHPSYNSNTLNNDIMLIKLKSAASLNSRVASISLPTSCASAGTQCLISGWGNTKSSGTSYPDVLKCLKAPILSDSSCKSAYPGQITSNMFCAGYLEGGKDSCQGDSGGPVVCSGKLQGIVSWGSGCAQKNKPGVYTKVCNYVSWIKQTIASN
Assay: EnzChek Protease Assay measuring trypsin activity (trypsin inhibition)
Type: biochemical
Conditions: for Trypsin activity (RFU): control (trypsin only) 1446 RFU; for Normalised activity: control (trypsin only) = 1.0
Description: Hair growth follows a cycle of activity: anagen (growth phase), catagen (transitional/regression phase), telogen (dormant) followed by renewal of anagen. The telogen phase lasts approximately 3 months. […] The major biochemical activity at this stage is one of proteolysis whereby the proteins anchoring the hair fibre to the structure of the follicle are degraded (Paus & Krejic-Papa J Dermatol Sci 1994 Vol. 7, pp. 202-209; Krejic-Papa et al J Invest Derm Vol. 106, p 557). These enzymes are of the serine protease family of proteases.
Trypsin is a serine protease.
The following experiment uses trypsin as a model for the serine proteases involved in the process of hair fall (exogen). Successful inhibition the activity of the serine proteases such as trypsin is thought to delay the onset of exogen and decrease the amount of hair fall.
The EnzChek Protease Assay (E6639, Molecular Probes) was used to measure trypsin activity.

CC(C)(C)C(=O)C(Oc1ccc(Cl)cc1)n1ccnc1 (centres unmarked) [Climbazole]
Trypsin activity (RFU) (Climbazole 0.0225%): 1656 RFU
Normalised activity (Climbazole 0.0225%): 1.15
Trypsin activity (RFU) (Climbazole 0.045%): 1553 RFU
Normalised activity (Climbazole 0.045%): 1.07
effect on trypsin activity (summary of the tables of Examples 1-6): no effect (or perhaps a positive effect)

— patent publication US8506942B2, “Hair care composition” (Conopco, Inc., priority 2007, dated 2013)
